Laboratory results from patent US20200325183A1, “NS2B AS MARKER FOR ZIKA VIRUS INFECTIONS” (priority 2017, published 2020).
Ends that are not written are not given here.

Key:
Format in all cases: binding, human
[1] = system: IgM antibodies in Zika acute and convalescent plasma samples; assay: Full substitution scan peptide microarray, IgM; conditions: data not shown
Source text: In a second screening round of the second study, microarrays with peptide substitution scans of linear WT peptide […] (SEQ ID NO. 9) and cyclic WT peptide KDAEVTGNS (SEQ ID NO. 10) were used to determine essential, conserved and less-conserved/variable amino acid positions and to identify stronger responding peptide variants. Each amino acid position in the WT sequence was systematically exchanged by all 20 physiologic amino acids, and the resulting linear and cyclic peptides and peptide variants were printed in triplicate on the peptide substitution scan microarrays. The immunoreactivity of the peptide variants was tested by incubation with Zika acute and convalescent plasma samples. The assays were carried out in a multiplexed format with fluorescently labeled secondary anti-human IgG and anti-human IgM antibodies to simultaneously analyze the IgG and IgM profiles of each sample.
A substitution analysis was performed with the WT peptide […] (SEQ ID No. 9) and cyclic peptide KDAEVTGNS (SEQ ID NO. 10) to determine essential, conserved and less-conserved/variable amino acid positions and to identify stronger reacting peptide variants.
Each amino acid position in the WT sequence was systematically exchanged by all 20 physiologic amino acids, and the resulting peptides and peptide variants were printed in triplicate on peptide microarrays. […]

[2] = system: IgG antibodies in sera of Zika patients; assay: Peptide microarray IgG screening, first study (ZIKV proteome / NS1, NS2a, NS2b arrays)
Source text: In a first study, the inventors characterized the antibody profiles of Zika patients in a systematic manner. Therefore, they translated the proteomes of 15 different ZIKV strains (taken from the NCBI database, see Table 1 below) in the form of overlapping peptides as high-density peptide arrays and used 84 different patient and control sera to screen several thousands of potential antigens for pathogen induced antibodies.
In addition, the inventors investigated the time-dependent antibody variation in patients (acute vs. convalescent stage). They screened patient sera from their collaboration partner in Brazil with different peptide arrays, containing the whole proteome of the ZIKV (first screening round). […] Almost no signals could be observed in control samples. […]
In the first study, sera were diluted 1:1000 in PBS buffer with 0.05% Tween 20 pH 7.4 (PBST) and 10% blocking buffer, incubating the sera for 16 h at 4° C. and 50 RPM orbital shaking. […] Image analysis and quantification was performed with the PepSlide Analyzer software (Sicasys Software GmbH, Heidelberg, Germany).
Samples used for the peptide array experiments of the first study were collected from individuals with acute febrile illnesses enrolled in a prospective cohort study from May 2015 to April 2016. […] For molecular viral diagnosis, quantitative real-time PCR (qRT-PCR) for Dengue (DENV) and Zika (ZIKV) viruses was performed. […]

[3] = system: IgG antibodies in plasma of Zika virus patients; assay: Proteome-wide Zika virus peptide microarray, second study, IgG; conditions: plasma 1:250, acute and convalescent samples
Source text: (§1) In a second more extended study, the inventors further characterized the IgG and IgM antibody profiles of Zika patients in a more comprehensive manner Therefore, they translated the proteomes of 19 Zika virus strains taken from sequencing data from Nicaragua, Colombia, Guatemala, Honduras, Mexico and Panama 100 additional Zika virus proteomes from the USA with a higher sequence heterogeneity into 4,356 different overlapping Zika virus peptides printed in duplicate on high-density peptide arrays for a high-resolution proteome-wide epitope screening.
(§2) The inventors used plasma of 100 Zika virus patients with a confirmed dengue virus naïve status in the acute and convalescent phase (200 samples), plasma of 50 Zika virus patients with a confirmed dengue virus positive status in the acute and convalescent phase (100 samples), 50 plasma samples of dengue virus patients in the convalescent phase taken before the Zika virus outbreak as disease control and plasma of 25 individuals with a confirmed dengue virus and Zika virus negative status as healthy controls. […] The multiplexed IgG and IgM analysis was enabled by highly specific fluorescently labeled anti-human IgG and anti-human IgM secondary antibodies with different fluorescence wavelengths for emission and detection. […]

[4] = system: IgM antibodies in plasma of Zika virus patients; assay: Proteome-wide Zika virus peptide microarray, second study, IgM; conditions: plasma 1:250, acute and convalescent samples
Source text: as §1, §2

[5] = system: IgG antibodies in sera of Zika acute and Zika convalescent patients; assay: Chemiluminescence peptide ELISA; conditions: serum dilution 1:1000, Zika acute and convalescent patient sera
Description: The cyclic peptides and WT peptide were tested by a chemiluminescence ELISA using sera of Zika acute and Zika convalescent patients. A healthy control (HC) sera was included. The ELISA assays were performed under stringent conditions, that is at high serum dilutions (1:1000) to better evaluate the diagnostic potential of the peptide marker. The ELISA results are given in chemiluminescence units (CLUs). Samples were considered as positive, if the CLU of a respective sera is >=2 times over HC value.
For ELISA tests, four cyclic peptides with a Biotin tag preceding the C-terminal cysteine residue were synthesized. The non-cyclic WT peptide (“WT peptide”) was synthesized with a C-terminal Biotin tag at the C-terminus, the amino acid sequence was identical to SEQ ID NO. 9.
Peptide ELISA-Tests were performed on Streptavidin functionalized 96 well microtiterplates (Lumitrac, Greiner BioOne, Germany). The plates were coated with the respective biotinylated peptides with a biotin tag positioned at the C-terminus, preceding the C-terminal cysteine. The plates were incubated overnight at 4° C. with test sera at a dilution of 1:1000 (v/v) in PBST/10% Rockland (PBST=Phosphate buffered saline pH 7.2, 0.05% Tween 20). […] The chemiluminescence was measured after 10 minutes at 425 nm using an automated plate reader (CLARIOstar®. BMG LABTECH GmbH, Germany). […]

Substance	IgM reactivity in substitution scan [1]	IgG antibody reactivity of Zika patients against the whole ZIKV proteome ([2]; first screening round, arrays with whole proteome content, sera 1:1000)	IgG antibody reactivity, specific arrays with NS1, NS2a, NS2b content ([2]; second screening round)	IgG response, proteome-wide microarray [3]	IgM response, proteome-wide microarray [4]	IgG reactivity in chemiluminescence ELISA (positive if CLU >=2 times over HC value) [5]
KDAEVTGNS (also: cyclic) [SEQ ID NO. 10, cyclic WT peptide on substitution scan microarrays]	not a single human sample exhibited any specific IgM reactivity					
NS2b: Zika virus non-structural protein NS2b, cofactor of NS3 protease, displayed as overlapping 15-mer peptides on arrays		most prominent interaction	clear signals	specific IgG responses	no specific IgM response	
WEKDAEVTGNSPRLD [WT peptide]	not a single human sample exhibited any specific IgM reactivity					detected Zika specific antibody responses in acute patient sera as well as in convalescent patient sera
